The target in assay [1] is T1, c-met (Homo sapiens, UniProt P08581).
T1 construct: Cell lysate of human colon adenocarcinoma HT29 known for its high content of c-met; endogenous in cells; host or cells: HT29 (ATCC HTB-38), human colon adenocarcinoma
Kind of assay: C-met-Inhibitor-Assay (ELISA type assay measuring phosphorylation of c-met from HT29 cell lysate). It is filed as biochemical. The following applies: ATP final conc. 40 μM, 60 min at room temperature. From the text: C-met-Inhibitor-Assay: Assay Principle
C-met is a typical tyrosine kinase which is involved in metastasis, proliferation/apoptosis and angiogenesis of tumors. The assay is an ELISA type assay measuring the phosphorylation of c-met using a phospho-tyrosine specific antibody.
Cell lysate of human colon adenocarcinoma HT29 known for its high content of c-met is bound to the wells of a microtiterplate (MTP) via an anti-hHGF receptor antibody (anti-hHGFR). ATP-phosphorylation of c-met is detected in presence or absence of the test compounds by using a phospho-tyrosine mouse IgG and a POD labeled goat anti-mouse IgG detection system. Using the classical POD substrate TMB, an absorption at 450 nm/620 nm is used to calculate enzymatic activity.
Plates: 96-well polystyrene plates (NUNC) streptavidin-coated microtiter plates Cell line/Lysate: HT29 (ATCC HTB-38), human colon adenocarcinoma (confluence: 2.5×10^5 cells/cm^2) are washed with PBS and incubated with Lysis buffer for 10 min on ice. Supernatent is collected and diluted with TBS. Lysate is shockfrozen in liquid nitrogen and stored at −80° C.)
Reagents (all working solutions are kept at 4° C., unless stated otherwise): • anti-hHGFR detection stock solution: 50 μg/ml (R&D Systems, Cat.No. BAF 358) antibody final conc.: 1 μg/ml • p-Tyr (PY99) mouse stock solution: 200 μg/ml (Santa Cruz Biotechnology, monoclonal IgG2b Cat.No. SC-7020) final conc.: 0.2 μg/ml • goat-anti-mouse IgG: 2 ml (BIO RAD, Cat.No. 170-6516) • (H+L)-HRP Conjugate; final conc.: 1:2000 • Blocking Reagent: Roche Diagnostics GmbH, Cat.No.1112589 for ELISA diluted 1:10 in TBS • ATP: Adenosine-5′-triphosphate, stock solution 10 mM, stock solution 10 mM (Roche • Diagnostics GmbH, Cat.No. 127531) final conc.: 40 μM • TBS: Tris-buffered saline, 50 mM TRIS pH 7.5 (Roche Diagnostics GmbH, Cat.No. 708976), 150 mM NaCl (SIGMA, Cat.No. S-3014) • Wash buffer TBS-T: Tris-buffered saline, 50 mM TRIS pH 7.5 150 mM NaCl, containing 0.5% Tween20 • Kinase buffer: Tris-buffered saline, 50 mM TRIS pH 7.5, 100 mM NaCl, 60 mM MgCl2 (SIGMA Chemical Company, Cat.No. M-1028) • Lysis buffer: 50 mM TRIS pH 7.5 containing 1% Nonidet P40 (Roche Diagnostics GmbH, Cat.No.1754599) 0.5% Deoxycholic acid (SIGMA Chemical Company, Cat.No. D-6750) • final conc.: 1 mM 1 mM PMSF stock solution 70 mM (Roche Diagnostics GmbH, • Cat.No.837091 40 μl/ml Complete (Roche Diagnostics GmbH, Cat.No. 1836145) Final conc.: 40 μl/ml • TMB: Tetramethylbenzidine (Intergen Company, Cat.No. 91000) • Samples: 10 mM in DMSO (stored at −20° C.), thawed at room temperature
Procedure: • Add 50 μl of anti-hHGFR detection antibody in blocking reagent to assay plate (final conc. 1 μg/ml), incubate assay plate for 60 min at room temperature on an MTP shaker. • Remove anti-hHGFR detection antibody solution from assay plate. • Add 250 μl blocking reagent per well to assay plate, incubate assay plate for 20 h, at 4° C. • Remove blocking reagent from assay plate. • Add 50 μl of HT29 lysate, incubate assay plate for 180 min, at 4° C. on an MTP shaker. • Wash assay plate with 2×200 μl TBS buffer per well. • Add 40 μl of 0.2% DMSO in kinase buffer to assay plate. • Add 40 μl sample solution (dissolved in kinase buffer—final conc. 22.5 μM). • Dissolve samples (1:3 ratio) in MTP. • Add 10 μl ATP dissolved in kinase buffer (200 μM) to samples (final conc. 40 μM ATP). Positive control: add 40 μl kinase buffer plus 10 μl 200 μM ATP. Negative control: add 40 μl kinase buffer plus 10 μl kinase buffer without ATP. […]
(In an ELISA, binding on a coated surface is turned into a signal by an enzyme label.)

Assay [2] deals with T2, Src (p60^c-src) (Homo sapiens, UniProt P12931).
T2 construct: purchased Upstate (UBI)
T2 sequence (P12931 whole entry): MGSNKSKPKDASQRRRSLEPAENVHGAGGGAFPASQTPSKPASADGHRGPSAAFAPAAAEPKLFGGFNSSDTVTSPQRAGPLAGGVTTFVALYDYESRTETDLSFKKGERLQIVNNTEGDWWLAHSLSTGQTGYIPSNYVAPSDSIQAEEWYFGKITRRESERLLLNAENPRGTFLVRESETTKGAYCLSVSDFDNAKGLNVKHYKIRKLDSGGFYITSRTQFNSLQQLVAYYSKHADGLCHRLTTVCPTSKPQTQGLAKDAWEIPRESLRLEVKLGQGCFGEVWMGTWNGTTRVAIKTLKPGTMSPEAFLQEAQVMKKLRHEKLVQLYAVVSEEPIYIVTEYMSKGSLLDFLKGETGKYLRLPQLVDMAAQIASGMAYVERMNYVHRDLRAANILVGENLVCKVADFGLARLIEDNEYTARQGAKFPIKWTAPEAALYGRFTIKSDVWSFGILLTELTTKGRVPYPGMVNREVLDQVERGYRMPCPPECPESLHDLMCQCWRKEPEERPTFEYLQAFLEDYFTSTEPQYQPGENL
As to the kind of experiment: SRC-Inhibitor-Assay (time-resolved fluorescence kinase assay). In kind it is biochemical. The following applies: ATP 5 μM; enzyme pre-incubated with inhibitor 15 min at 15° C. The protocol:
SRC-Inhibitor-Assay Parameters:
Assay buffer: 4 mM MgCl2 • 2 mM TCEP • 50 mM HEPES • 0.1% Tween 20 • pH 7.3
Inhibitor: max. 25 μM • min. 0.42 nM Material:
Eu-labelled phosphotyrosine antibody:—for Lck Cisbio Mab PT66-K, • for Src EG&G Wallac PT66 Eu-W1024 (all commercially available).
Peptides: Ro: NH2-A-E-E-E-I-Y-G-E-F-E-A-K-K-K-K-CONH2 (SEQ ID NO: 1), and Ja133-Ro: Ja133-G-Aminocaprylic acid-A-E-E-E-I-Y-G-E-F-E-A-K-K-K-K-CONH2 (SEQ ID NO: 2) wherein Ja133 is LightCycler-Red 640-N-hydroxy succinimide ester; whereby both peptides were synthesized by an optimized solid phase peptide synthesis protocol (Merrifield, Fed. Proc. Fed. Amer. Soc. Exp. Biol. 21 (1962) 412) on a Zinsser SMP350 peptide synthesizer. Shortly, the peptide was assembled on 160 mg (22.8 μmol scale) of a Rink-Linker modified polystyrene solid phase by repeatedly conjugating an twenty fold excess of aminoacids each protected by temporary piperidine labile Fmoc- and permanent acid labile tert-Bu-, BOC- and Otert-Bu-groups depending on the side chain function. The substrate sequence AEEEIYGEFEAKKKK (SEQ ID NO: 1) was N-terminal additionally mounted with the spacer amino acids Aminocaprylic acid and Glycin. After cleavage of the N-terminal temporary protecting group the still attached and protected peptide was labeled with a 1.5 fold amount of LightCycler-Red 640-N-hydroxy succinimide ester (purchased by Roche Diagnostics GmbH) and triethylamine. After 3 hrs. the resin was washed with Dimethylformamide and Isopropanol until the eluates of the blue resin got colourless. […] The substrate was finally isolated by a preparative reverse phase HPLC purification. The purification yielded 12.2 mg RP-HPLC single peak pure blue material (lyophilisate). The identity was proven by MALDI mass spectroscopy [2720.0].
Enzymes: Upstate Lck (p56^lck, active), Upstate Src (p60^c-src, partially purified) were purchased from UBI.
Time-resolved Fluorescence Assay: Reader: Perkin Elmer, Wallac Viktor 1420-040 multilabel counter; Liquid handling system: Beckman Coulter, Biomek 2000.
ATP, Tween 20, HEPES were purchased from Roche Molecular Biochemicals, MgCl2 and MnCl2 were purchased from Merck Eurolab, TCEP was purchased from Pierce, 384 Well low volume fluorescence plates was purchased from Falcon.
At first the enzyme is pre-incubated for 15 min. at 15° C. in aqueous solution with corresponding amounts of inhibitors according to this invention. Then the phosphorylation reaction is started by adding a reaction mixture, containing ATP, Peptide and PT66, and subsequent shaking. The proceeding of this reaction is immediately monitored using time resolved fluorescence spectroscopy in a suitable well plate reader.
The IC50-values can be obtained from the reaction rates by using a non-linear curve fit (Excelfit).

Structures are written as SMILES. pIC50: −log10 of the molar value.

T1 sequence (P08581 25-1390): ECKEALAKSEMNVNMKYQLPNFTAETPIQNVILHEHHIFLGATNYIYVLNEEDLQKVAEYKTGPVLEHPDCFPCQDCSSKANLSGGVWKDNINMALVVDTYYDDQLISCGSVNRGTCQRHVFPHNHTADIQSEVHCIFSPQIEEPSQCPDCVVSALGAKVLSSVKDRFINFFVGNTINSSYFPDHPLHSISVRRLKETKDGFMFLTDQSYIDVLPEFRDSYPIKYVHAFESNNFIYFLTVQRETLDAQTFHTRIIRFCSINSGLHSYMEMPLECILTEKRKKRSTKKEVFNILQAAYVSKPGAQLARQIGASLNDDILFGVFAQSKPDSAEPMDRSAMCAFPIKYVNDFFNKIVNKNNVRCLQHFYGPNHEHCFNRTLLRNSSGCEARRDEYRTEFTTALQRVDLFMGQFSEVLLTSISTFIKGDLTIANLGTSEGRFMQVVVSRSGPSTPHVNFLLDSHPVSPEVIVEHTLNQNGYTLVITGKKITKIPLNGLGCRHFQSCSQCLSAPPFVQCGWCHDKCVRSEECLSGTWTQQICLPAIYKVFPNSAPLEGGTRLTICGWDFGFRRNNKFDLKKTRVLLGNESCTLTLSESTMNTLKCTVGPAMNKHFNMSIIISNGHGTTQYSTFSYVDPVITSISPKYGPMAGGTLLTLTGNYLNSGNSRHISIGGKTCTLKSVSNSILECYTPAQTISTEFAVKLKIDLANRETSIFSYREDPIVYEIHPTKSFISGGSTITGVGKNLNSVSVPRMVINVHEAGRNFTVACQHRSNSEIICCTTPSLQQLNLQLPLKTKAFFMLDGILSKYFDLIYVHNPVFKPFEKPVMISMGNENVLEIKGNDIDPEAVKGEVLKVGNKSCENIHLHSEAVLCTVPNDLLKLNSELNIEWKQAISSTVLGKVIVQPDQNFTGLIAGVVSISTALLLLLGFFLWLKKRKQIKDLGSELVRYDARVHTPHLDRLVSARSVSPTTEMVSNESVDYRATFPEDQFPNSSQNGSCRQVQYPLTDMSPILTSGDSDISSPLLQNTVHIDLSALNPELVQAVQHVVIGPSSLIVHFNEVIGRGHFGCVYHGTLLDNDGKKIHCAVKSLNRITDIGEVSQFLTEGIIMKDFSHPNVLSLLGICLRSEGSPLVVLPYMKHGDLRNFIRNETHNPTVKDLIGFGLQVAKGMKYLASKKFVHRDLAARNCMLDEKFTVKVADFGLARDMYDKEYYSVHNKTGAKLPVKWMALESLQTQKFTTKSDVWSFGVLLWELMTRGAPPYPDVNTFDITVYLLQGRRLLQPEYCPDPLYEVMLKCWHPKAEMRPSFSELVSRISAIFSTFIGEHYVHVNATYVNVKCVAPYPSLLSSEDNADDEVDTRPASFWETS

Usually pIC50 stands for −log10 of the IC50, conventionally taken in molar units. A higher pIC50 goes with a small IC50. `CCN(CC)CCOc1ccc(Nc2nccc(-c3nc(-c4c(Cl)cc(CO)cc4Cl)[nH]c3-c3cccc(Cl)c3)n2)cc1` [Example H2.2.1, 2-(2,6-dichloro-4-hydroxymethylphenyl)-4-(3-chlorophenyl)-5-(2-[4-(2-diethylaminoethoxy)-phenylamino]pyrimidin-4-yl)-N—H-imidazole]: the figures for the pIC50 in assay [1] and in assay [2] were 8.40 and 9.30, respectively.
Molecule `O=S(=O)(NCCO)c1ccc(Nc2nccc(-c3[nH]c(-c4c(Cl)cc(OCCO)cc4Cl)nc3-c3cccc(Cl)c3)n2)cc1` [Example H2.3.3, 2-(2,6-dichloro-4-[2-hydroxyethoxy]phenyl)-4-(3-chlorophenyl)-5-(2-[4-(N-(2-hydroxyethyl)-ulfamoyl)phenylamino]pyrimidin-4-yl)-N—H-imidazole] showed a pIC50 in assay [2] of 8.17.
In turn, `C[S+]([O-])c1ccc(Nc2nccc(-c3[nH]c(-c4c(Cl)cc(OCCO)cc4Cl)nc3-c3cccc(Cl)c3)n2)cc1` (stereo not drawn) [Example H2.3.2, 2-(2,6-dichloro-4-[2-hydroxyethoxy]phenyl)-4-(3-chlorophenyl)-5-(2-[4-methylsufinyl-phenylamino]pyrimidin-4-yl)-N—H-imidazole] had a pIC50 in assay [2] of 6.48.
As for `C#Cc1cccc(-c2nc(-c3c(Cl)cccc3Cl)[nH]c2-c2ccnc(Nc3ccc(OCCO)cc3)n2)c1` [Example H4.1.2, 2-(2,6-dichlorophenyl)-4-(3-ethynylphenyl)-5-(2-[4-(2-hydroxyethoxy)-phenylamino]pyrimidin-4-yl)-N—H-imidazole], the pIC50 was 7.05 in assay [1] and 7.48 in assay [2].
Regarding `CCN(CC)CCOc1ccc(Nc2nccc(-c3[nH]c(-c4c(Cl)cccc4Cl)nc3-c3ccc(Cl)cc3)n2)cc1` [Example H3.1.1, 2-(2,6-dichlorophenyl)-4-(4-chlorophenyl)-5-(2-[4-(2-diethylaminoethoxy)-phenylamino]pyrimidin-4-yl)-N—H-imidazole], the pIC50 in assay [1] is 6.22; in assay [2], 7.61.
The matching figures for `CCN(CC)CCOc1ccc(Nc2nccc(-c3[nH]c(-c4c(Cl)cccc4Cl)nc3-c3cccc(Br)c3)n2)cc1` [Example H1.1, 2-(2,6-dichlorophenyl)-4-(3-bromophenyl)-5-(2-[4-(2-diethylamino-ethoxy)phenylamino]pyrimidin-4-yl)-N—H-imidazole]: 8.30 and 8.17.
For the molecule `Clc1cccc(-c2nc(-c3c(Cl)cccc3Cl)[nH]c2-c2ccnc(Nc3ccc(N4CCOCC4)cc3)n2)c1` [Example H2.1.4, 2-(2,6-dichlorophenyl)-4-(3-chlorophenyl)-5-(2-[4-morpholinophenyl-amino]pyrimidin-4-yl)-N—H-imidazole], the pIC50 is 7.08 in assay [1] and 7.63 in assay [2].
As to `CCN(CC)CCOc1ccc(Nc2nccc(-c3[nH]c(-c4c(Cl)cc(OCCO)cc4Cl)nc3-c3cccc(Cl)c3)n2)cc1` [Example H2.3.1, 2-(2,6-dichloro-4-[2-hydroxyethoxy]phenyl)-4-(3-chlorophenyl)-5-(2-[4-(2-diethylaminoethoxy)-phenylamino]pyrimidin-4-yl)-N—H-imidazole], the negative-log IC50 (pIC50) in assay [2] was 8.80.
On to `CN(C)c1ccc(Nc2nccc(-c3[nH]c(-c4c(Cl)cccc4Cl)nc3-c3cccc(Cl)c3)n2)cc1` [Example H2.1.3, 2-(2,6-dichlorophenyl)-4-(3-chlorophenyl)-5-(2-[4-dimethylaminophenyl-amino]pyrimidin-4-yl)-N—H-imidazole], for which the pIC50 is 6.78 in assay [1] and 7.51 in assay [2].

(Values after US7169781B2, “Imidazole derivatives and their use as pharmaceutical agents” (Hoffmann-La Roche Inc., priority 2003, dated 2007).)
